{"source": "patent US20250214977A1", "about": "“STAT6 INHIBITORS AND USES THEREOF” (Kymera Therapeutics, Inc., priority 2024, published 2025)", "tested_on": "Phosphorylation of STAT6 in human A549 cells", "experiment": "Phosphorylated STAT6 (pSTAT6) flow cytometry assay in human A549 cells", "assay_type": "cell-based", "conditions": "read-out: STAT6 IL4 pSTAT6 assay in A549 cells: Average IC50", "text": "Example 3. Phosphorylated STAT6 (pSTAT6) Flow Cytometry Assay in Human A549 Cells\nPhosphorylation of STAT6 in human A549 cells was quantitatively measured using flow cytometry technology."}
{"molecule": "COc1ccncc1-c1cc(C2=CCCN(C(C)=O)C2)c(F)c2sc(C(=O)N(C)C)cc12", "note": "[Example I-555]", "values": [{"measurement": "IC50", "value": "100 to 1000", "unit": "nM"}]}
{"molecule": "COc1cccnc1N1CCN(C(=O)c2cc3c(-c4cnccc4OC4CC4)cc(C4=CCCN(C(=O)CCn5ccnn5)C4)c(F)c3[nH]2)CC1", "note": "[Example I-556]", "values": [{"measurement": "IC50", "value": "< 100", "unit": "nM"}]}
{"molecule": "COc1cccnc1N1CCN(C(=O)c2cc3c(N4CCN(C)CC4)cc(C4=CCCN(C(=O)CCn5ccnn5)C4)c(F)c3[nH]2)CC1", "note": "[Example I-557]", "values": [{"measurement": "IC50", "value": "< 100", "unit": "nM"}]}
{"molecule": "COc1cccnc1N1CCN(C(=O)c2cc3c(-c4ccccc4OC(F)(F)F)cc(C4=CCCN(C(=O)CCn5ccnn5)C4)c(F)c3[nH]2)CC1", "note": "[Example I-558]", "values": [{"measurement": "IC50", "value": "< 100", "unit": "nM"}]}
{"molecule": "COc1cc(F)c(F)cc1-c1cc(C2=CCCN(C(=O)CCn3ccnn3)C2)c(F)c2[nH]c(C(=O)N3CCN(c4ncccc4OC)CC3)cc12", "note": "[Example I-559]", "values": [{"measurement": "IC50", "value": "< 100", "unit": "nM"}]}
{"molecule": "COc1cccnc1N1CCN(C(=O)c2cc3c(-c4cccc(C)c4OC)cc(C4=CCCN(C(=O)CCn5ccnn5)C4)c(F)c3[nH]2)CC1", "note": "[Example I-560]", "values": [{"measurement": "IC50", "value": "< 100", "unit": "nM"}]}
{"molecule": "CCc1ccncc1-c1cc(C2=CCCN(C(=O)CCn3ccnn3)C2)c(F)c2[nH]c(C(=O)N3CCN(c4ncccc4OC)CC3)cc12", "note": "[Example I-561]", "values": [{"measurement": "IC50", "value": "< 100", "unit": "nM"}]}
{"molecule": "CCc1ccccc1-c1cc(C2=CCCN(C(=O)CCn3ccnn3)C2)c(F)c2[nH]c(C(=O)N3CCN(c4ncccc4OC)CC3)cc12", "note": "[Example I-562]", "values": [{"measurement": "IC50", "value": "< 100", "unit": "nM"}]}
{"molecule": "COc1ccncc1-c1cc(C2=CCCN(C(=O)CCn3ccnn3)C2)c(F)c2[nH]c(C(=O)N3CCN(c4cccc(F)c4OC)CC3)cc12", "note": "[Example I-563]", "values": [{"measurement": "IC50", "value": "< 100", "unit": "nM"}]}
{"molecule": "CCOc1cccnc1N1CCN(C(=O)c2cc3c(-c4cnccc4OC)cc(C4=CCCN(C(=O)CCn5ccnn5)C4)c(F)c3[nH]2)CC1", "note": "[Example I-564]", "values": [{"measurement": "IC50", "value": "< 100", "unit": "nM"}]}
{"molecule": "COc1ccncc1-c1cc(C2=CCCN(C(=O)CCn3ccnn3)C2)c(F)c2[nH]c(C(=O)N3CCN(c4ccccc4OC)CC3)cc12", "note": "[Example I-565]", "values": [{"measurement": "IC50", "value": "< 100", "unit": "nM"}]}
{"molecule": "COc1ccc(F)cc1-c1cc(C2=CCCN(C(=O)CCn3ccnn3)C2)c(F)c2[nH]c(C(=O)N3CCN(c4ccccc4OC)CC3)cc12", "note": "[Example I-566]", "values": [{"measurement": "IC50", "value": "< 100", "unit": "nM"}]}
{"molecule": "COc1ccccc1N1CCN(C(=O)c2cc3c(-c4cccc(F)c4OC)cc(C4=CCCN(C(=O)CCn5ccnn5)C4)c(F)c3[nH]2)CC1", "note": "[Example I-567]", "values": [{"measurement": "IC50", "value": "< 100", "unit": "nM"}]}
{"molecule": "COc1ccncc1-c1cc(C2=CCCN(C(=O)CCn3ccnn3)C2)c(F)c2[nH]c(C(=O)N3CCN(c4ccccn4)C(C)C3)cc12", "note": "(centres unmarked) [Example I-568]", "values": [{"measurement": "IC50", "value": "< 100", "unit": "nM"}]}
{"molecule": "COc1cccnc1N1CCN(C(=O)c2cc3c(C4=C(C)CCCC4)cc(C4=CCCN(C(=O)CCn5ccnn5)C4)c(F)c3[nH]2)CC1", "note": "[Example I-569]", "values": [{"measurement": "IC50", "value": "< 100", "unit": "nM"}]}
{"molecule": "COc1cc(C)ncc1-c1cc(C2=CCCN(C(=O)CCn3ccnn3)C2)c(F)c2[nH]c(C(=O)N3CCN(c4ncccc4OC)CC3)cc12", "note": "[Example I-570]", "values": [{"measurement": "IC50", "value": "< 100", "unit": "nM"}]}
{"molecule": "COc1cc(N)ccc1-c1cc(C2=CCCN(C(=O)CCn3ccnn3)C2)c(F)c2[nH]c(C(=O)N3CCN(c4ncccc4OC)CC3)cc12", "note": "[Example I-571]", "values": [{"measurement": "IC50", "value": "< 100", "unit": "nM"}]}
{"molecule": "COc1cccnc1N1CCN(C(=O)c2cc3c(-c4nc(C)[nH]c4C)cc(C4=CCCN(C(=O)CCn5ccnn5)C4)c(F)c3[nH]2)CC1", "note": "[Example I-572]", "values": [{"measurement": "IC50", "value": "< 100", "unit": "nM"}]}
{"molecule": "COc1cccnc1N1CCN(C(=O)c2cc3c(-c4ccccc4C#N)cc(C4=CCCN(C(=O)CCn5ccnn5)C4)c(F)c3[nH]2)CC1", "note": "[Example I-573]", "values": [{"measurement": "IC50", "value": "< 100", "unit": "nM"}]}
{"molecule": "COc1cccnc1N1CCN(C(=O)c2cc3c(-c4cn(C)nc4C)cc(C4=CCCN(C(=O)CCn5ccnn5)C4)c(F)c3[nH]2)CC1", "note": "[Example I-574]", "values": [{"measurement": "IC50", "value": "< 100", "unit": "nM"}]}
{"molecule": "COc1cccnc1N1CCN(C(=O)c2cc3c(-c4ccc(C#N)cn4)cc(C4=CCCN(C(=O)CCn5ccnn5)C4)c(F)c3[nH]2)CC1", "note": "[Example I-575]", "values": [{"measurement": "IC50", "value": "< 100", "unit": "nM"}]}
{"molecule": "COc1cc(C#N)ccc1-c1cc(C2=CCCN(C(=O)CCn3ccnn3)C2)c(F)c2[nH]c(C(=O)N3CCN(c4ncccc4OC)CC3)cc12", "note": "[Example I-576]", "values": [{"measurement": "IC50", "value": "< 100", "unit": "nM"}]}
{"molecule": "COc1cccnc1N1CCN(C(=O)c2cc3c(-c4ccc5ncccc5c4OC)cc(C4=CCCN(C(=O)CCn5ccnn5)C4)c(F)c3[nH]2)CC1", "note": "[Example I-577]", "values": [{"measurement": "IC50", "value": "< 100", "unit": "nM"}]}
{"molecule": "COc1cccnc1N1CCN(C(=O)c2cc3c(-n4ccc5ccccc54)cc(C4=CCCN(C(=O)CCn5ccnn5)C4)c(F)c3[nH]2)CC1", "note": "[Example I-578]", "values": [{"measurement": "IC50", "value": "< 100", "unit": "nM"}]}
{"molecule": "COc1cccnc1N1CCN(C(=O)c2cc3c(C4CCCCC4)cc(C4=CCCN(C(=O)CCn5ccnn5)C4)c(F)c3[nH]2)CC1", "note": "[Example I-579]", "values": [{"measurement": "IC50", "value": "< 100", "unit": "nM"}]}
{"molecule": "CNc1ccc(-c2cc(C3=CCCN(C(=O)CCn4ccnn4)C3)c(F)c3[nH]c(C(=O)N4CCN(c5ncccc5OC)CC4)cc23)c(OC)c1", "note": "[Example I-580]", "values": [{"measurement": "IC50", "value": "< 100", "unit": "nM"}]}
{"molecule": "COc1cccnc1N1CCN(C(=O)c2cc3c(-c4cc(C#N)ccn4)cc(C4=CCCN(C(=O)CCn5ccnn5)C4)c(F)c3[nH]2)CC1", "note": "[Example I-581]", "values": [{"measurement": "IC50", "value": "< 100", "unit": "nM"}]}
{"molecule": "CCn1nccc1-c1cc(C2=CCCN(C(=O)CCn3ccnn3)C2)c(F)c2[nH]c(C(=O)N3CCN(c4ncccc4OC)CC3)cc12", "note": "[Example I-582]", "values": [{"measurement": "IC50", "value": "< 100", "unit": "nM"}]}
{"molecule": "COc1cccnc1N1CCN(C(=O)c2cc3c(-c4ccc(OC)c5c4OCCO5)cc(C4=CCCN(C(=O)CCn5ccnn5)C4)c(F)c3[nH]2)CC1", "note": "[Example I-583]", "values": [{"measurement": "IC50", "value": "> 100000", "unit": "nM"}]}
{"molecule": "COc1cccnc1N1CCN(C(=O)c2cc3c(C4CCN(C)C4)cc(C4=CCCN(C(=O)CCn5ccnn5)C4)c(F)c3[nH]2)CC1", "note": "(centres unmarked) [Example I-585]", "values": [{"measurement": "IC50", "value": "< 100", "unit": "nM"}]}
{"molecule": "COc1cccnc1N1CCN(C(=O)c2cc3c(-n4nc(C)cc4C)cc(C4=CCCN(C(=O)CCn5ccnn5)C4)c(F)c3[nH]2)CC1", "note": "[Example I-586]", "values": [{"measurement": "IC50", "value": "< 100", "unit": "nM"}]}
{"molecule": "COc1ccncc1-c1cc(C2=CCCN(C(=O)CCn3ccnn3)C2)c(F)c2[nH]c(C(=O)N3CCN(C4CC4)CC3)cc12", "note": "[Example I-587]", "values": [{"measurement": "IC50", "value": "< 100", "unit": "nM"}]}
{"molecule": "COc1cc(F)ccc1-c1cc(C2=CCCN(C(=O)CCn3ccnn3)C2)c(F)c2[nH]c(C(=O)N3CCN(C4CC4)CC3)cc12", "note": "[Example I-588]", "values": [{"measurement": "IC50", "value": "< 100", "unit": "nM"}]}
{"molecule": "COc1cccc(N2CCN(C(=O)c3cc4c(-c5ccc(F)cc5OC)cc(C5=CCCN(C(=O)CCn6ccnn6)C5)c(F)c4[nH]3)CC2)n1", "note": "[Example I-589]", "values": [{"measurement": "IC50", "value": "< 100", "unit": "nM"}]}
{"molecule": "COc1cccc(N2CCN(C(=O)c3cc4c(-c5cc(F)c(F)cc5OC)cc(C5=CCCN(C(=O)CCn6ccnn6)C5)c(F)c4[nH]3)CC2)n1", "note": "[Example I-590]", "values": [{"measurement": "IC50", "value": "< 100", "unit": "nM"}]}
{"molecule": "COc1cccc(N2CCN(C(=O)c3cc4c(-c5cc(F)cc(F)c5OC)cc(C5=CCCN(C(=O)CCn6ccnn6)C5)c(F)c4[nH]3)CC2)n1", "note": "[Example I-591]", "values": [{"measurement": "IC50", "value": "< 100", "unit": "nM"}]}
{"molecule": "COc1cccnc1N1CCN(C(=O)c2cc3c(N4CCCOCC4)cc(C4=CCCN(C(=O)CCn5ccnn5)C4)c(F)c3[nH]2)CC1", "note": "[Example I-592]", "values": [{"measurement": "IC50", "value": "< 100", "unit": "nM"}]}
{"molecule": "COc1cnccc1-c1cc(C2=CCCN(C(=O)CCn3ccnn3)C2)c(F)c2[nH]c(C(=O)N3CCN(c4ncccc4OC4CC4)CC3)cc12", "note": "[Example I-593]", "values": [{"measurement": "IC50", "value": "< 100", "unit": "nM"}]}
{"molecule": "COc1cc(F)ccc1-c1cc(C2=CCCN(C(=O)CCn3ccnn3)C2)c(F)c2[nH]c(C(=O)N3CCN(c4ncccc4OC4CC4)CC3)cc12", "note": "[Example I-594]", "values": [{"measurement": "IC50", "value": "< 100", "unit": "nM"}]}
{"molecule": "COc1ncccc1-c1cc(C2=CCCN(C(=O)CCn3ccnn3)C2)c(F)c2[nH]c(C(=O)N3CCN(c4ncccc4OC4CC4)CC3)cc12", "note": "[Example I-595]", "values": [{"measurement": "IC50", "value": "< 100", "unit": "nM"}]}
{"molecule": "COc1cc(F)c(F)cc1-c1cc(C2=CCCN(C(=O)CCn3ccnn3)C2)c(F)c2[nH]c(C(=O)N3CCN(c4ncccc4OC4CC4)CC3)cc12", "note": "[Example I-596]", "values": [{"measurement": "IC50", "value": "< 100", "unit": "nM"}]}
